Earlier results in patent US20230181491A1, “COMPOSITIONS AND METHODS FOR THE TREATMENT AND MANAGEMENT OF INFLAMMATION USING HYDROXYNORKETAMINE” (SPIRIFY PHARMA INC., priority 2020, published 2023).
Counter-ions that a name gives are not always drawn.

Tested on: rats
Settings: cited from earlier work

Row | Compound | spontaneous locomotor activity during the postanesthetic recovery phase
1 | CNC1(c2ccccc2Cl)CCCCC1=O (racemic) [(R,S)-ketamine hydrochloride] | increased spontaneous locomotor activity
2 | NC1(c2ccccc2Cl)CCCCC1=O (racemic) [(R,S)-norketamine] | increased spontaneous locomotor activity
3 | (2R,6R;2S,6S)-HNK | no anesthetic or hyperlocomotor effects
